Assay results taken from ChEMBL document CHEMBL5523756, “Molecular Transformers: Adaptive Multitarget Ligands for Esterase-Induced Transition from Analgesics to Anesthetics” (J Med Chem, 2024).
Activity calls are given as the source filed them. The rule behind the calls is not given here.

Key:
[1] = Toxicity in Sprague-Dawley rat assessed as effect on gastrointestinal function by measuring ink peristalsis at 19 mg/kg administered as continuous infusion followed by maintenance at 3.25 mg/kg/min for 0 to 20 mins, 2.5 mg/kg/min for 20 to 30 mins and 2 mg/kg/min for 30 to 60 mins and further administered with ink suspension and measured after 10 mins; type: organism-based; conditions: in vivo, other, 1.167 h, route par, time 70 min
[2] = target: GABA-A receptor; alpha-1/beta-2/gamma-2 (Homo sapiens) (UniProt P14867+P47870+P18507); assay: Agonist activity at alpha1beta2gamma2 GABA-A receptor (unknown origin) at 10 uM at -70 mV holding potential by electrophysiological recording; type: protein-complex assay
[3] = target: Sodium channel protein type 9 subunit alpha (Homo sapiens, UniProt Q15858); assay: Inhibition of Nav1.7 channel (unknown origin) at half inactivation state at -120 mV conditioning pulse by voltage clamp electrophysiological recording
[4] = target: Sodium channel protein type 5 subunit alpha (Homo sapiens, UniProt Q14524); assay: Inhibition of Nav1.5 channel (unknown origin) at half inactivation state at -120 mV conditioning pulse by voltage clamp electrophysiological recording; type: toxicity
Sequence of Sodium channel protein type 5 subunit alpha (Q14524 whole entry): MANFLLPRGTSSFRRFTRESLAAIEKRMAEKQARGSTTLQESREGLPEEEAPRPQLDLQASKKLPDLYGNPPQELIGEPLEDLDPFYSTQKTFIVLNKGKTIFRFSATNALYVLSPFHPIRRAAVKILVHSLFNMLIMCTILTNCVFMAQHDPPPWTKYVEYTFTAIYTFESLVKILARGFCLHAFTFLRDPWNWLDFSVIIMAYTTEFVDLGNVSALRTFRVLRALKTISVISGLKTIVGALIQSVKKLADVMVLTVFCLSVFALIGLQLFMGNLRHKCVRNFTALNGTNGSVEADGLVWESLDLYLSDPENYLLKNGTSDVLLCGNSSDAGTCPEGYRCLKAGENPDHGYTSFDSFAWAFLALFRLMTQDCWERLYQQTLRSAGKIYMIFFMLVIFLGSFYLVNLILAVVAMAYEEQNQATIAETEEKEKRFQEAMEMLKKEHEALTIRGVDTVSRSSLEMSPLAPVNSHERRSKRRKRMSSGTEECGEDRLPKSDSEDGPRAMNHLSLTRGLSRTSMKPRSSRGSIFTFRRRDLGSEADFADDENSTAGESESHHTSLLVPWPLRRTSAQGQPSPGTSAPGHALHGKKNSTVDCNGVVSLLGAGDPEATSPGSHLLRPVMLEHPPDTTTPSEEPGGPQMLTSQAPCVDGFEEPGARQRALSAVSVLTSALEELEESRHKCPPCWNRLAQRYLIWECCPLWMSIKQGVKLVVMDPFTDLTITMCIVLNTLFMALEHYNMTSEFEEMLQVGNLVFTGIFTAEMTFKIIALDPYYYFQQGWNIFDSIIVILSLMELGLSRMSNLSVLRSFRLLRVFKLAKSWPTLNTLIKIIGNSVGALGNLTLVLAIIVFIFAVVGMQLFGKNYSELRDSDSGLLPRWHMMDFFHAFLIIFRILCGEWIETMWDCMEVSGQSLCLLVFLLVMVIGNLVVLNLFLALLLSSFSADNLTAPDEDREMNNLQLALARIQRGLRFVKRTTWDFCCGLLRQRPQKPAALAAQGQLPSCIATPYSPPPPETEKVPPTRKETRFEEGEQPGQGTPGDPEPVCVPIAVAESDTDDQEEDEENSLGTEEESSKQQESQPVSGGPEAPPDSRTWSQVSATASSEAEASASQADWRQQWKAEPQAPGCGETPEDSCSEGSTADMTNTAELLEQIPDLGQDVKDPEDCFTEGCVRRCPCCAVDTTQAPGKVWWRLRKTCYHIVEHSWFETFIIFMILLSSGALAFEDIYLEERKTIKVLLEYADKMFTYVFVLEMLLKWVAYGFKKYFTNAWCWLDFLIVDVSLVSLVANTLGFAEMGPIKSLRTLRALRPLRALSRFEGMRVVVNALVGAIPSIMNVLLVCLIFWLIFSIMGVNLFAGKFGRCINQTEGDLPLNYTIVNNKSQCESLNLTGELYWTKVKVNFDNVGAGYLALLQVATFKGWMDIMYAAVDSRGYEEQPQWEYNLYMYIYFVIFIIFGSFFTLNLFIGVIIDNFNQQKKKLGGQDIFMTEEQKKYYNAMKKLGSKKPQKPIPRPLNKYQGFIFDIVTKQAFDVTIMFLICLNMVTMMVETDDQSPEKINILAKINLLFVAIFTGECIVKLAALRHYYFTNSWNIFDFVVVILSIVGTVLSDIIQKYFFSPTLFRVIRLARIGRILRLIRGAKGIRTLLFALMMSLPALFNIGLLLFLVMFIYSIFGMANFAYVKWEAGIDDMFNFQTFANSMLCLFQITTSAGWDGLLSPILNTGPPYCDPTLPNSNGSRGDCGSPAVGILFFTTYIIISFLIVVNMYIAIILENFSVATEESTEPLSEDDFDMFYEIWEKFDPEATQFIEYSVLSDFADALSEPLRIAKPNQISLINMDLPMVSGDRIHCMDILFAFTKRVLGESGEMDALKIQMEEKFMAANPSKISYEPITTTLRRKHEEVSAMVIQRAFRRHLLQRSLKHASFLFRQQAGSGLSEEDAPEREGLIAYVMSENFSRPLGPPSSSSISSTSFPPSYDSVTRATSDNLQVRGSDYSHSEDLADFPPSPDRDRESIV

Sequence of Sodium channel protein type 9 subunit alpha (Q15858 whole entry): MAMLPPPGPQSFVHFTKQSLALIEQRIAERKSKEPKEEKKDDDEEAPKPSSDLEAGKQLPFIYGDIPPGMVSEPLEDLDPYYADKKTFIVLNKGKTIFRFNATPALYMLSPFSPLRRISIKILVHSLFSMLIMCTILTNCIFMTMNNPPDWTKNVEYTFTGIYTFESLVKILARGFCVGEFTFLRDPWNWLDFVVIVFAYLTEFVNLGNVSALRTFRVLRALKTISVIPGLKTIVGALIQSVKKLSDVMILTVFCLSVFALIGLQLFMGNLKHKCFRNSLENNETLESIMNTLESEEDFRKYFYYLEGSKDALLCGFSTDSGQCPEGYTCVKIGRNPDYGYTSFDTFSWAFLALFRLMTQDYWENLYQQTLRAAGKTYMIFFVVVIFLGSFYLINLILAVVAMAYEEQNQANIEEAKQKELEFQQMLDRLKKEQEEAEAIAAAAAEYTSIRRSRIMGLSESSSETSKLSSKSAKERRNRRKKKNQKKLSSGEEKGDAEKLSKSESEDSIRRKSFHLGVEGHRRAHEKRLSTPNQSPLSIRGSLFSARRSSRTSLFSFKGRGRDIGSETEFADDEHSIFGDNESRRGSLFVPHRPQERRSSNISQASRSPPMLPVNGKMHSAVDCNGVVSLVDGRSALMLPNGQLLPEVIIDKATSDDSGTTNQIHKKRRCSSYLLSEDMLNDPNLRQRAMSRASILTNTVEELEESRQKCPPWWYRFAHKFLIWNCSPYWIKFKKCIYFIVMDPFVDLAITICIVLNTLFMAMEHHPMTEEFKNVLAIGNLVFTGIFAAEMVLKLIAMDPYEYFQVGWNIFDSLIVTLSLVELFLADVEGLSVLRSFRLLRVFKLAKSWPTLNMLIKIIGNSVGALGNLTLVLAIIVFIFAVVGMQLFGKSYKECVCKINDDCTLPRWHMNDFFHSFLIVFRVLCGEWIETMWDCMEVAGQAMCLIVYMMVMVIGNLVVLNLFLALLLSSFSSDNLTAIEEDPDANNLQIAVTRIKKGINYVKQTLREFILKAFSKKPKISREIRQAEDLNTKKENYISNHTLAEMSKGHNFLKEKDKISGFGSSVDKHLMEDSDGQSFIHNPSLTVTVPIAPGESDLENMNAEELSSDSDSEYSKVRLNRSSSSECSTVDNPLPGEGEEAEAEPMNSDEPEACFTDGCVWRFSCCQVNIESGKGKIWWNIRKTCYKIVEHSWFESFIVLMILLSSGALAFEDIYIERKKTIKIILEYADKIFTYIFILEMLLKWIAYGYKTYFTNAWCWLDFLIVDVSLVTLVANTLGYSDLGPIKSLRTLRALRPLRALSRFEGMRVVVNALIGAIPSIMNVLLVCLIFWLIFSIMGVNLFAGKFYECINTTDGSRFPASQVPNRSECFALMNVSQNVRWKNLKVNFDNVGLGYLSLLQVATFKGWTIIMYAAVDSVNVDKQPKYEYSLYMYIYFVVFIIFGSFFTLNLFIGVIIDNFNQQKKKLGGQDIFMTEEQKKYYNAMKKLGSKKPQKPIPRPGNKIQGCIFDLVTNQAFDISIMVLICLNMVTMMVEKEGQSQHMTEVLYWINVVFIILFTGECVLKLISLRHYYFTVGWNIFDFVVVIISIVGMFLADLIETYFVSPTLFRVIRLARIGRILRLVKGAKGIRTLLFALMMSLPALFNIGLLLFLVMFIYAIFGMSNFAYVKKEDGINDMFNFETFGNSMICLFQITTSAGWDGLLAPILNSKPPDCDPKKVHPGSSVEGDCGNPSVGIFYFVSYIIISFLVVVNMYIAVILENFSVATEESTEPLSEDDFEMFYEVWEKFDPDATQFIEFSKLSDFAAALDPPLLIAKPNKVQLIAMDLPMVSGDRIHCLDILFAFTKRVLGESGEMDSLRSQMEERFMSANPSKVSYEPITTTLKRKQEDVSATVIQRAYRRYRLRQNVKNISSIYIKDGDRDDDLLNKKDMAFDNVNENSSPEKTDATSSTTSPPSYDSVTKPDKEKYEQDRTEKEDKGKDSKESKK

## CCN(CC)CCOC(=O)Oc1c(C(C)C)cccc1C(C)C.Cl
[1]
  Activity: Non-Toxic
[2]
  Activity: inactive
[3]
  IC50: 7.43 µM
[4]
  IC50: 20.5 µM
